In ChEMBL document CHEMBL5321275, “Discovery, Optimization, and Evaluation of Novel N-(Benzimidazol-5-yl)-1,3,4-thiadiazol-2-amine Analogues as Potent STAT3 Inhibitors for Cancer Treatment” (J Med Chem, 2023):

What was measured:
[1] = Inhibition of IL-6/JAK/STAT3 signalling pathway in HEK-Blue IL-6 cells incubated for 16 hrs by QUANTI-blue assay; format: cell-based; details: Homo sapiens, HEK-Blue IL-6, 16 h
HEK-Blue IL-6 = assay: Inhibition of IL-6/JAK/STAT3 signalling pathway in HEK-Blue IL-6 cells at 10 uM incubated for 16 hrs by QUANTI-blue assay relative to control; format: cell-based; details: Homo sapiens
DU-145 [2] = assay: Antiproliferative activity against human DU-145 cells assessed as inhibition of cell growth measured after 96 hrs by MTT assay; format: functional, cell-based; details: DU-145, 96 h
MDA-MB-231 [3] = assay: Antiproliferative activity against human MDA-MB-231 cells assessed as inhibition of cell growth at 10 uM measured after 96 hrs by MTT assay relative to control; format: functional
MDA-MB-231 [4] = assay: Antiproliferative activity against human MDA-MB-231 cells assessed as inhibition of cell growth measured after 96 hrs by MTT assay; format: functional, cell-based; details: MDA-MB-231, 96 h
DU-145 [5] = assay: Antiproliferative activity against human DU-145 cells assessed as inhibition of cell growth at 10 uM measured after 96 hrs by MTT assay relative to control; format: functional

In the case of `Fc1ccc(-c2nc3cc(Nc4nnc(-c5cccc(C(F)(F)F)c5)s4)ccc3n2C2CC2)cc1`, the IC50 [1] is reported as over 10 µM and the inhibition (HEK-Blue IL-6) is reported as 34.5%.
Compound `CCOc1cc2c(cc1Nc1nnc(-c3cccc(C#N)c3)s1)nc(-c1ccc(F)cc1)n2C1CC1` has an IC50 (DU-145 [2]) of over 10 µM, an inhibition at 10 µM (MDA-MB-231 [3]) of -5.91% and an IC50 (MDA-MB-231 [4]) of over 10 µM. For the same compound, the IC50 [1] was 0.52 µM, the inhibition (HEK-Blue IL-6) was 92.5% and the inhibition at 10 µM (DU-145 [5]) was 14%.
Work on `CCCn1c(-c2ccc(F)cc2)nc2cc(Nc3nnc(-c4ccccc4)s3)c(N3CCN(C)CC3)cc21` yielded an IC50 (DU-145 [2]) of 4.68 µM, an inhibition at 10 µM (MDA-MB-231 [3]) of 93.4% and an IC50 (MDA-MB-231 [4]) of 3.34 µM. For the same compound, the IC50 [1] was 1.32 µM, the inhibition (HEK-Blue IL-6) was 105% and the inhibition at 10 µM (DU-145 [5]) was 80.7%.
Work on `COCCn1c(-c2ccc(F)cc2)nc2cc(Nc3nnc(-c4ccccc4)s3)c(N3CCN(C)CC3)cc21` yielded an IC50 [1] of 6.42 µM and an inhibition (HEK-Blue IL-6) of 65.4%.
Compound `Fc1ccc(-c2nc3cc(Nc4nnc(-c5ccc(C(F)(F)F)cc5)s4)c(F)cc3n2C2CC2)cc1` has an IC50 (DU-145 [2]) of over 10 µM, an inhibition at 10 µM (MDA-MB-231 [3]) of -2.76% and an IC50 (MDA-MB-231 [4]) of over 10 µM. The IC50 [1] was 4.84 µM, the inhibition (HEK-Blue IL-6) was 64.1% and the inhibition at 10 µM (DU-145 [5]) was -25%.
`CN(C)C1CCN(c2cc3c(cc2Nc2nnc(-c4ccccc4)s2)nc(-c2ccc(F)cc2)n3C2CC2)CC1` gave an IC50 (DU-145 [2]) of over 10 µM, an inhibition at 10 µM (MDA-MB-231 [3]) of 19.5% and an IC50 (MDA-MB-231 [4]) of over 10 µM. The IC50 [1] was 3.29 µM, the inhibition (HEK-Blue IL-6) was 69.2% and the inhibition at 10 µM (DU-145 [5]) was -2.92%.
`Fc1ccc(Oc2cc3c(cc2Nc2nnc(-c4cccc(C(F)(F)F)c4)s2)nc(-c2ccc(F)cc2)n3C2CC2)cc1` gave an IC50 [1] of over 10 µM and an inhibition (HEK-Blue IL-6) of 6.34%.
With `CC(C)n1c(-c2ccc(F)cc2)nc2cc(Nc3nnc(-c4ccccc4)s3)c(N3CCN(C)CC3)cc21` the IC50 (DU-145 [2]) was over 10 µM, the inhibition at 10 µM (MDA-MB-231 [3]) was 0.1% and the IC50 (MDA-MB-231 [4]) was over 10 µM. For the same compound, the IC50 [1] was 3.12 µM, the inhibition (HEK-Blue IL-6) was 71.4% and the inhibition at 10 µM (DU-145 [5]) was -4.96%.
For `CN(C)CCn1c(-c2ccc(F)cc2)nc2cc(Nc3nnc(-c4ccccc4)s3)c(N3CCN(C)CC3)cc21`, the IC50 [1] was over 10 µM and the inhibition (HEK-Blue IL-6) was 2.11%.
In the case of `Fc1ccc(-c2nc3cc(Nc4nnc(-c5ccccc5C(F)(F)F)s4)c(F)cc3n2C2CC2)cc1`, the IC50 (DU-145 [2]) is reported as over 10 µM, the inhibition at 10 µM (MDA-MB-231 [3]) is reported as 3.62% and the IC50 (MDA-MB-231 [4]) is reported as over 10 µM. It also gave an IC50 [1] of 0.6 µM, an inhibition (HEK-Blue IL-6) of 99.9% and an inhibition at 10 µM (DU-145 [5]) of 14.7%.
In the case of `CN1CCN(c2cc3c(cc2Nc2nnc(-c4ccccc4)s2)nc(-c2ccc(F)cc2)n3C2CCCC2)CC1`, the IC50 (DU-145 [2]) is reported as over 10 µM, the inhibition at 10 µM (MDA-MB-231 [3]) is reported as -5.02% and the IC50 (MDA-MB-231 [4]) is reported as over 10 µM. For the same compound, the IC50 [1] was 5.28 µM, the inhibition (HEK-Blue IL-6) was 77.5% and the inhibition at 10 µM (DU-145 [5]) was -26.6%.
`CN1CCN(c2cc3c(cc2Nc2nnc(-c4ccccc4)s2)nc(-c2ccc(Cl)cc2)n3C2CC2)CC1` gave an IC50 (DU-145 [2]) of over 10 µM, an inhibition at 10 µM (MDA-MB-231 [3]) of 6.84% and an IC50 (MDA-MB-231 [4]) of over 10 µM. It also gave an IC50 [1] of 2.96 µM, an inhibition (HEK-Blue IL-6) of 75.8% and an inhibition at 10 µM (DU-145 [5]) of -4.82%.
`CCCn1c(-c2ccc(F)cc2)nc2cc(Nc3nnc(-c4ccc(C(F)(F)F)cc4)s3)c(N3CCN(C)CC3)cc21` showed an IC50 (DU-145 [2]) of 6.73 µM, an inhibition at 10 µM (MDA-MB-231 [3]) of 93.8% and an IC50 (MDA-MB-231 [4]) of 3.83 µM. For the same compound, the IC50 [1] was 3.28 µM, the inhibition (HEK-Blue IL-6) was 90.9% and the inhibition at 10 µM (DU-145 [5]) was 64.6%.
With `CC(C)c1ccc(-c2nnc(Nc3cc4nc(-c5ccc(F)cc5)n(C5CC5)c4cc3F)s2)cc1` the IC50 (DU-145 [2]) was over 10 µM, the inhibition at 10 µM (MDA-MB-231 [3]) was 1.85% and the IC50 (MDA-MB-231 [4]) was over 10 µM. For the same compound, the IC50 [1] was 7.88 µM, the inhibition (HEK-Blue IL-6) was 61.9% and the inhibition at 10 µM (DU-145 [5]) was 17.9%.
With `CN1CCN(c2cc3c(cc2Nc2nnc(-c4ccccc4)s2)nc(-c2ccccc2F)n3C2CC2)CC1` the IC50 [1] was 7.56 µM and the inhibition (HEK-Blue IL-6) was 63.3%.
Work on `Fc1cc2c(cc1Nc1nnc(-c3cccc(C(F)(F)F)c3)s1)nc(-c1ccccc1)n2C1CC1` yielded an IC50 [1] of over 10 µM and an inhibition (HEK-Blue IL-6) of 25.6%.
Work on `CCCn1c(-c2cccc(F)c2)nc2cc(Nc3nnc(-c4ccccc4C(F)(F)F)s3)c(F)cc21` yielded an IC50 [1] of over 10 µM and an inhibition (HEK-Blue IL-6) of 46.2%.
`Fc1ccc(-c2nc3cc(Nc4nnc(-c5ccccc5)s4)ccc3n2C2CC2)cc1` gave an IC50 [1] of 5.79 µM and an inhibition (HEK-Blue IL-6) of 66.1%.
Work on `Fc1cc2c(cc1Nc1nnc(-c3ccccc3F)s1)nc(-c1ccccc1F)n2C1CC1` yielded an IC50 [1] of 3.92 µM and an inhibition (HEK-Blue IL-6) of 63.6%.
`CN1CCN(c2cc3c(cc2Nc2nnc(-c4cccc(C(F)(F)F)c4)s2)nc(-c2ccc(F)cc2)n3C2CC2)CC1` gave an IC50 (DU-145 [2]) of 5.66 µM, an inhibition at 10 µM (MDA-MB-231 [3]) of 94.1% and an IC50 (MDA-MB-231 [4]) of 3.98 µM. The IC50 [1] was 2.23 µM, the inhibition (HEK-Blue IL-6) was 100% and the inhibition at 10 µM (DU-145 [5]) was 64.6%.
Compound `Fc1ccc(-c2nc3cc(Nc4nnc(-c5ccc(C(F)(F)F)cc5)s4)ccc3n2C2CC2)cc1` has an IC50 [1] of over 10 µM and an inhibition (HEK-Blue IL-6) of 8.71%.
In the case of `Fc1cc2c(cc1Nc1nnc(-c3cccc(C(F)(F)F)c3)s1)nc(-c1cccc(C(F)(F)F)c1)n2C1CC1`, the IC50 (DU-145 [2]) is reported as over 10 µM, the inhibition at 10 µM (MDA-MB-231 [3]) is reported as 4.54% and the IC50 (MDA-MB-231 [4]) is reported as over 10 µM. The IC50 [1] was 1.53 µM, the inhibition (HEK-Blue IL-6) was 72.8% and the inhibition at 10 µM (DU-145 [5]) was -0.72%.
For `CC(C)N1CCN(c2cc3c(cc2Nc2nnc(-c4ccccc4)s2)nc(-c2ccc(F)cc2)n3C2CC2)CC1`, the IC50 (DU-145 [2]) was 4.04 µM, the inhibition at 10 µM (MDA-MB-231 [3]) was 90.1% and the IC50 (MDA-MB-231 [4]) was 3.21 µM. It also gave an IC50 [1] of 2.42 µM, an inhibition (HEK-Blue IL-6) of 77.1% and an inhibition at 10 µM (DU-145 [5]) of 79.9%.
For `CCCCn1c(-c2ccc(F)cc2)nc2cc(Nc3nnc(-c4ccccc4)s3)c(N3CCN(C)CC3)cc21`, the IC50 (DU-145 [2]) was over 10 µM, the inhibition at 10 µM (MDA-MB-231 [3]) was -14.4% and the IC50 (MDA-MB-231 [4]) was over 10 µM. The IC50 [1] was 3.51 µM, the inhibition (HEK-Blue IL-6) was 80.7% and the inhibition at 10 µM (DU-145 [5]) was -9.69%.
`CCCn1c(-c2ccc(F)cc2)nc2cc(Nc3nnc(-c4cccc(C(F)(F)F)c4)s3)c(N3CCN(C)CC3)cc21` gave an IC50 (DU-145 [2]) of 9.73 µM, an inhibition at 10 µM (MDA-MB-231 [3]) of 90.1% and an IC50 (MDA-MB-231 [4]) of 6.63 µM. For the same compound, the IC50 [1] was over 10 µM, the inhibition (HEK-Blue IL-6) was 5.21% and the inhibition at 10 µM (DU-145 [5]) was 55.6%.
`CN1CCN(c2cc3c(cc2Nc2nnc(-c4cccnc4)s2)nc(-c2ccc(F)cc2)n3C2CC2)CC1` showed an IC50 [1] of over 10 µM and an inhibition (HEK-Blue IL-6) of -0.36%.
`Fc1ccc(-c2nc3cc(Nc4nnc(-c5ccccc5)s4)c(N4CCN(c5ccccc5)CC4)cc3n2C2CC2)cc1` gave an IC50 [1] of over 10 µM and an inhibition (HEK-Blue IL-6) of 21.3%.
`CN1CCN(c2cc3c(cc2Nc2nnc(-c4ccccc4)s2)nc(-c2cccnc2)n3C2CC2)CC1` gave an IC50 [1] of over 10 µM and an inhibition (HEK-Blue IL-6) of 25.5%.
Work on `CN1CCN(c2cc3c(cc2Nc2nnc(-c4ccccc4)s2)nc(-c2ccc(F)cc2)n3C2CCC2)CC1` yielded an IC50 [1] of 6.27 µM and an inhibition (HEK-Blue IL-6) of 64.7%.
Compound `Fc1ccc(-c2nc3cc(Nc4nnc(-c5ccc(C(F)(F)F)cc5)s4)c(N4CCOCC4)cc3n2C2CC2)cc1` has an IC50 [1] of over 10 µM and an inhibition (HEK-Blue IL-6) of 0.29%.
`Fc1cc2c(cc1Nc1nnc(-c3cccc(C(F)(F)F)c3)s1)nc(-c1ccc(C(F)(F)F)cc1)n2C1CC1` showed an IC50 [1] of over 10 µM and an inhibition (HEK-Blue IL-6) of 29.6%.
With `CCCn1c(-c2cccc(F)c2)nc2cc(Nc3nnc(-c4ccc(C(F)(F)F)cc4)s3)c(F)cc21` the IC50 [1] was over 10 µM and the inhibition (HEK-Blue IL-6) was 54.6%.
For `Fc1ccc(-c2nc3cc(Nc4nnc(-c5cccc(C(F)(F)F)c5)s4)c(F)cc3n2C2CC2)cc1`, the IC50 (DU-145 [2]) was over 10 µM, the inhibition at 10 µM (MDA-MB-231 [3]) was 8.11% and the IC50 (MDA-MB-231 [4]) was over 10 µM. For the same compound, the inhibition at 10 µM (DU-145 [5]) was -3.68%.
`CCCn1c(-c2cccc(F)c2)nc2cc(Nc3nnc(-c4cccc(C(F)(F)F)c4)s3)c(F)cc21` gave an IC50 [1] of over 10 µM and an inhibition (HEK-Blue IL-6) of 20.2%.
`CC(C)(C)c1ccc(-c2nnc(Nc3cc4nc(-c5ccc(F)cc5)n(C5CC5)c4cc3F)s2)cc1` showed an IC50 [1] of over 10 µM and an inhibition (HEK-Blue IL-6) of 36.1%.
With `CN1CCN(c2cc3c(cc2Nc2nnc(-c4ccccc4)s2)nc(-c2cccc(F)c2)n3C2CC2)CC1` the IC50 [1] was 4.51 µM and the inhibition (HEK-Blue IL-6) was 56.6%.
Work on `Fc1ccc(-c2nc3cc(Nc4nnc(-c5ccc(Cl)c(C(F)(F)F)c5)s4)c(F)cc3n2C2CC2)cc1` yielded an IC50 [1] of over 10 µM and an inhibition (HEK-Blue IL-6) of 34.2%.
